US8901307B2, “Chemical compounds 251” (AstraZeneca AB, priority 2008, dated 2014)
Where a name gives a salt, the structure may show the parent alone.

Key:
human His-PIM1 [2-313] = target: T1, human His-PIM1 [2-313] (Homo sapiens, UniProt P11309); assay: PIM1 in-vitro mobility shift assay (Caliper LC3000, FL-Ahx-Bad phosphorylation); assay type: biochemical; details: 1.5 h; percent inhibition at 0.3 uM compound; read-out: PIM1 % I at 0.3 uM
T1 construct: purified human His-PIM1 [2-313] enzyme; His (N); purchased University of Dundee, Scotland; host or cells: baculovirus system
T1 sequence (P11309 2-313): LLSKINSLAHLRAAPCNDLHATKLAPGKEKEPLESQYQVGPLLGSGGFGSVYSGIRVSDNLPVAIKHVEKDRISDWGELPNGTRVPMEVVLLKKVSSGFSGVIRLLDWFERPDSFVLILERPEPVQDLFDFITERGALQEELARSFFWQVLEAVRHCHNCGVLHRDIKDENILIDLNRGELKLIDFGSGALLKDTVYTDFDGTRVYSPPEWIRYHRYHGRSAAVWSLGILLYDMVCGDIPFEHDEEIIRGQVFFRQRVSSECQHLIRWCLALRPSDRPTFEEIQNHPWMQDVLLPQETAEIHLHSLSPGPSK
Outline: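 Compound preincubated 20 min at 25 °C with 2.4 nM PIM1, 3.6 µM FL-Ahx-Bad peptide and 240 µM ATP (1.2× mix concentrations). Reaction started with 24 mM MgCl2 mix, run 90 min at 25 °C, EDTA-stopped. Phospho/unphospho peptide separated by microfluidic mobility shift; percent inhibition from ratiometric turnover.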

human His-PIM2 [23-299] = target: T2, human His-PIM2 [23-299] (Homo sapiens, UniProt Q9P1W9); assay: PIM2 in-vitro mobility shift assay (Caliper LC3000, FL-Ahx-Bad phosphorylation); assay type: biochemical; details: 1.5 h; percent inhibition at 0.3 uM compound; read-out: PIM2 % I at 0.3 uM
T2 construct: purified human His-PIM2 [23-299] enzyme; His (N); host or cells: E. coli
T2 sequence (Q9P1W9 23-299): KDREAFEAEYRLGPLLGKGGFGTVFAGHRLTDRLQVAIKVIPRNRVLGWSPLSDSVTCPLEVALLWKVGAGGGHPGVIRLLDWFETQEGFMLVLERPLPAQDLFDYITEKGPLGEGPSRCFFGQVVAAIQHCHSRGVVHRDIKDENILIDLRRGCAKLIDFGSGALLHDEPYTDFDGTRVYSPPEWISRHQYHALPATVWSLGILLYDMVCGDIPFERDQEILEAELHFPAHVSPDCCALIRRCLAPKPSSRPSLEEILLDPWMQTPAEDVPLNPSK

| Structure (SMILES) | inhibition at 0.3 µM (human His-PIM1 [2-313]) [%] | inhibition at 0.3 µM (human His-PIM2 [23-299]) [%] |
| --- | --- | --- |
| NCc1cccc(C(=O)N2CCN(c3ccccc3/C=C3\SC(=O)NC3=O)CC2)c1 [Example 110, (Z)-5-(2-(4-(3-(aminomethyl)benzoyl)piperazin-1-yl)benzylidene)thiazolidine-2,4-dione hydrochloride] | 90.9 | 90.7 |
| COc1cc(/C=C2\SC(=O)NC2=O)c(N2CCC(NCCN)C2)cc1OC (stereo not shown) [Example 111, (Z)-5-(2-(3-(2-aminoethylamino)pyrrolidin-1-yl)-4,5-dimethoxybenzylidene)thiazolidine-2,4-dione hydrochloride] | > 95 | > 95 |
| NCCN1CCN(c2ccccc2/C=C2\SC(=O)NC2=O)CC1 [Example 112, (Z)-5-(2-(4-(2-aminoethyl)piperazin-1-yl)benzylidene)thiazolidine-2,4-dione hydrochloride] | > 95 | > 95 |
| CNCCNC1CCN(c2cc(OC)c(OC)cc2/C=C2\SC(=O)NC2=O)C1 (stereo not shown) [Example 113, (Z)-5-(4,5-dimethoxy-2-(3-(2-(methylamino)ethylamino)pyrrolidin-1-yl)benzylidene)thiazolidine-2,4-dione hydrochloride] | > 95 | > 95 |
| CNCCN1CCN(c2ccccc2/C=C2\SC(=O)NC2=O)CC1 [Example 114, (Z)-5-(2-(4-(2-(methylamino)ethyl)piperazin-1-yl)benzylidene)thiazolidine-2,4-dione hydrochloride] | > 95 | > 95 |
| O=C1NC(=O)/C(=C/c2ccccc2N2CCNCC2)S1 [Example 115, (5Z)-5-(2-piperazin-1-ylbenzylidene)-1,3-thiazolidine-2,4-dione hydrochloride] | 93.3 | 76.1 |
| O=C1NC(=O)/C(=C/c2ccccc2N2CCN(C(=O)C3CCCNC3)CC2)S1 (stereo not shown) [Example 116, 5-(2-(4-(piperidine-3-carbonyl)piperazin-1-yl)benzylidene)thiazolidine-2,4-dione hydrochloride] | > 95 | > 95 |
| O=C1NC(=O)/C(=C/c2ccccc2N2CCN(C(=O)C3CNC3)CC2)S1 [Example 117, (5Z)-5-{2-[4-(azetidin-3-ylcarbonyl)piperazin-1-yl]benzylidene}-1,3-thiazolidine-2,4-dione hydrochloride] | > 95 | > 95 |
| COc1cc(/C=C2\SC(=O)NC2=O)c(N2CCC(N)C2)cc1OC (stereo not shown) [Example 118, (5Z)-5-[2-(3-aminopyrrolidin-1-yl)-4,5-dimethoxybenzylidene]-1,3-thiazolidine-2,4-dione hydrochloride] | > 95 | > 95 |
| COc1cc(/C=C2\SC(=O)NC2=O)c(N2CC[C@@H](NC(=O)CCCCN)C2)cc1OC [Example 119, (R,Z)-5-amino-N-(1-(2-((2,4-dioxothiazolidin-5-ylidene)methyl)-4,5-dimethoxyphenyl)pyrrolidin-3-yl)pentanamide hydrochloride] | 56.2 | 20.1 |
| COc1cc(/C=C2\SC(=O)NC2=O)c(N2CC[C@H](NC(=O)CCCCN)C2)cc1OC [Example 120, (S,Z)-5-amino-N-(1-(2-((2,4-dioxothiazolidin-5-ylidene)methyl)-4,5-dimethoxyphenyl)pyrrolidin-3-yl)pentanamide hydrochloride] | 58.9 | 22.2 |
| COc1cc(/C=C2\SC(=O)NC2=O)c(N2CC[C@H](NCCCN)C2)cc1OC [Example 121, (S,Z)-5-(2-(3-(3-aminopropylamino)pyrrolidin-1-yl)-4,5-dimethoxybenzylidene)thiazolidine-2,4-dione hydrochloride] | > 95 | 87.4 |
| N[C@@H]1CCCN(c2c(/C=C3\SC(=O)NC3=O)cccc2OC2CCC2)C1 [Example 122AD, (R,Z)-5-(2-(3-aminopiperidin-1-yl)-3-cyclobutoxybenzylidene)thiazolidine-2,4-dione hydrochloride] | > 95 | > 95 |

Continued, values first:

| inhibition at 0.3 µM (human His-PIM1 [2-313]) [%] | inhibition at 0.3 µM (human His-PIM2 [23-299]) [%] | Structure (SMILES) |
| --- | --- | --- |
| 88.2 | 55 | COc1cc(/C=C2\SC(=O)NC2=O)c(N2CC[C@@H](NCCCN)C2)cc1OC [Example 122A, (R,Z)-5-(2-(3-(3-aminopropylamino)pyrrolidin-1-yl)-4,5-dimethoxybenzylidene)thiazolidine-2,4-dione hydrochloride] |
| > 95 | > 95 | COCCOc1cccc(/C=C2\SC(=O)NC2=O)c1N1CCC[C@@H](N)C1 [Example 122AA, (R,Z)-5-(2-(3-aminopiperidin-1-yl)-3-(2-methoxyethoxy)benzylidene)thiazolidine-2,4-dione hydrochloride] |
| > 95 | > 95 | COCCOc1cccc(/C=C2\SC(=O)NC2=O)c1N1CC[C@H](N)C1 [Example 122AB, (S,Z)-5-(2-(3-aminopyrrolidin-1-yl)-3-(2-methoxyethoxy)benzylidene)thiazolidine-2,4-dione hydrochloride] |
| > 95 | > 95 | N[C@@H]1CCCN(c2c(/C=C3\SC(=O)NC3=O)cccc2OC2CCCC2)C1 [Example 122AC, (R,Z)-5-(2-(3-aminopiperidin-1-yl)-3-(cyclopentyloxy)benzylidene)thiazolidine-2,4-dione hydrochloride] |
| > 95 | > 95 | NC(=O)c1ccc(N2CCC[C@@H](N)C2)c(/C=C2\SC(=O)NC2=O)c1 [Example 122AE, (R,Z)-4-(3-aminopiperidin-1-yl)-3-((2,4-dioxothiazolidin-5-ylidene)methyl)benzamide hydrochloride] |
| 83.9 | 87.9 | NC(=O)c1ccc(N2CCC[C@H](N)C2)c(/C=C2\SC(=O)NC2=O)c1 [Example 122AF, (S,Z)-4-(3-aminopiperidin-1-yl)-3-((2,4-dioxothiazolidin-5-ylidene)methyl)benzamide hydrochloride] |
| 68.9 | 86.7 | N[C@@H]1CCCN(c2ccc(C(=O)O)cc2/C=C2\SC(=O)NC2=O)C1 [Example 122AG, (R,Z)-4-(3-aminopiperidin-1-yl)-3-((2,4-dioxothiazolidin-5-ylidene)methyl)benzoic acid hydrochloride] |
| 19 | 14 | N[C@H]1CCN(c2ccc(C(=O)O)cc2/C=C2\SC(=O)NC2=O)C1 [Example 122AH, (S,Z)-4-(3-aminopyrrolidin-1-yl)-3-((2,4-dioxothiazolidin-5-ylidene)methyl)benzoic acid] |
| > 95 | > 95 | N[C@@H]1CCCN(c2c(/C=C3\SC(=O)NC3=O)cccc2-c2ccccc2)C1 [Example 122AI, (R,Z)-5-((2-(3-aminopiperidin-1-yl)biphenyl-3-yl)methylene)thiaozlidine-2,4-dione] |
| > 95 | 92.3 | NC[C@H]1CCN(c2c(Cl)cccc2/C=C2\SC(=O)NC2=O)C1 [Example 122B, (R,Z)-5-(2-(3-(aminomethyl)pyrrolidin-1-yl)-3-chlorobenzylidene)thiazolidine-2,4-dione] |
